Tests used:
Bowes-Melanoma-Zellen = conditions: Kooistra et al.; cited from earlier work
CHO-Zellen [1] = test: Extracellular protein content and [3H]-leucine incorporation in CHO cells, serum-free medium; type: cell-based, chinesische Hamster
CHO-Zellen [2] = test: t-PA production in transformed CHO cells, medium with 7.5% FKS, supernatant, direct chromogenic assay (DCA); type: cell-based, chinesische Hamster
Excerpt: Der Vektor für die t-PA-Produktion wurde in einem Subklon, CHO-K1-DUX B11, integriert (Urlaub et al., Proceedings of the National Academy of Science, USA, 77: 4216-4220, 1980). Diese Zell-Linie, eine Dihydrofolat Reduktase negative Mutante (DHFR-), ist für eine DHFR-abhängige Selektion der transfizierten Zellklone geeignet. Der Vektor für die humane c-DNA kann ein bekannter Plasmid-Vektor pBR-322 oder deren Abkömmling von Escherichia coli sein. Die Promotorregion für das in Frage kommende Gen und für das DHFR-Gen stammt aus SV 40 und die Terminationsregion für beide Gene von einem Hepatitis B-Oberflächenantigen. In den Beispielen wurden CHO-K1-DUX B11-Zellen, die durch die Plasmide pETPER oder pEPEFR transformiert sind, verwendet (siehe EP-A 0117059).
(§1) Die Zellkulturen werden bei 37°C in einem Hereaus-Brutschrank inkubiert und mit einem Kohlendioxid-Luftgemisch von 7,5% CO₂ in einer relativen Luftfeuchtigkeit von 100% belüftet. Je nach Verfahrensansatz werden unterschiedliche Kulturgefäße benutzt: Spinnergefäße für 100-1000 ml Medium, Roux-Schalen (Nunc) 175 cm² (70-100 ml Medium), 75 cm² (30-50 ml Medium), 25 cm² (7-10 ml Medium) und Mehrfachkulturschalen von Costar mit 2 cm² für 1 ml Kulturen. Für die Stammhaltung werden die Zellen in einer Dichte von 0,2-0,3 x 10⁶ Zellen/ml eingesetzt und alle 2-3 Tage subkloniert.
Die Protein-Produktion stimulierenden Substanzen können zu den verschiedenen Zeitpunkten jeweils in einer 1:100 Verdünnung zugegeben werden, d.h. sie wurden zuerst in Medium gelöst oder, wenn sie schwerlöslich sind, erst in Äthylalkohol gelöst und danach in Medium zugesetzt und dann das diese Substanz enthaltende Medium dem zellenthaltenden Medium im Verhältnis 1:100 v/v zugegeben.
In den folgenden Beispielen wurden, um die Stimulierung der t-PA-Synthese hervorzurufen, Zellen einer exponentiell wachsenden Kultur entnommen und in Plastikröhrchen (Falcon) 10 Min. bei 1000 x g in einer Beckmann T 3-6 Zentrifuge abzentrifugiert. Nach Dekantieren des Überstandes wurde das Zellpellet mit frischem Medium resuspendiert.
(§2) Für die Produktion von t-PA in serumhaltigem Medium wurde als frisches Medium F12/DMEM + 7,5% FKS + Gentamycin verwendet. Die resultierende Suspension kann in 2 cm² 24 Wells-Platten bei einer Zelldichte von 0,2-0,3 x 10⁶ Zellen/ml angesetzt werden.
Aliquots von Zellüberständen und Zellextrakten wurden zu verschiedenen Zeitpunkten abgenommen bzw. hergestellt. Die Messung der Proben erfolgte entweder sofort oder nach Aufbewahrung bei -20°C mit folgenden Methoden:
Von dem synthetischen Peptidsubstrat S-2288 (D-H-Ile-Pro-Arg-p-Nitroanilin) der Firma Kabi Diagnostica wird durch das t-PA p-Nitroanilin als Reaktionsprodukt gebildet. Die Aktivität von t-PA ist zur Bildung von p-Nitroanilin proportional, die bei […], 37°C, gemessen wird.
Die spektrophotometrische Bestimmung der Enzymkinetik wurde mit einem ACP-5010-Analysengerät der Firma Eppendorf automatisch durchgeführt.
Die Aktivität des Enzyms wurde anhand dieses vorgegebenen Standards berechnet. Eine t-PA-Standardreihe von 1-15 µg/ml wurde mit einem Laborstandard hergestellt, der zu 72% aus 1-kettigem Material besteht.
Die Substratlösung (100 mM Tris/106 mM NaCl) wurde in einer Konzentration von 50 mM eingesetzt.

CHO-Zellen [3] = test: Cell growth / cell division of transformed CHO cells; type: cell-based, chinesische Hamster; conditions: compared with Buttersäure
Experimental: as §1, §2
Für die Produktion von t-PA in serumfreiem Medium wurden die Zellen zuvor 3-4 Tage in einem Medium von 1-2% FKS adaptiert, wieder abzentrifugiert und das Zellpellet in serumfreiem Medium resuspendiert und anschließend in 2 cm² 24 Wells-Platten in einer Zelldichte von 0,4-0,5 x 10⁶ Zellen/ml überführt.

Row | Structure (SMILES) | Einfluß auf die Synthese von t-PA (Bowes-Melanoma-Zellen) | Einbau von [³H]-Leucin (CHO-Zellen [1]) | extrazellulärer Proteingehalt gegenüber der Kontrolle (CHO-Zellen [1]) | minimal effective concentration (CHO-Zellen [2]; CHO, read-out: für die t-PA-Stimulierung notwendige Konzentrationen) [µM] | % Steigerung der t-PA-Synthese Durchschnitt (CHO-Zellen [2]; Table 3, mean ± SE, n = 3-24, production runs of 3 to 4 days, acids added day 0 to 3, 1 ml supernatant vs control (0%), 7,5% FKS) | % Steigerung der t-PA-Synthese Maximum (CHO-Zellen [2]; Table 3, single sample, 1 ml supernatant vs control (0%), 7,5% FKS, its concentration, addition and sampling day in brackets in Tables 3/3A) | optimaler Dosisbereich (CHO-Zellen [2]; Table 3, stimulation of t-PA synthesis, medium with 7,5% FKS, bracketed value = concentration of the single (maximum) sample) | Steigerung der t-PA-Produktion (CHO-Zellen [2]; Table 4, Applikationstag 0, after 48 h growth, 7,5% FKS, 1 mM or 5 mM, 1 ml supernatant vs control (0%), mean ± SE) | Steigerung der t-PA-Produktion (CHO-Zellen [2]; Table 4, Applikationstag 1, after 48 h growth, 7,5% FKS, 1 mM or 5 mM, 1 ml supernatant vs control (0%), mean ± SE) | Steigerung der t-PA-Produktion (CHO-Zellen [2]; day 4, medium with 7,5% FKS (Abb. 7)) | prozentuale Steigerung niedriger als Buttersäure (CHO-Zellen [2]; difference to Buttersäure) | Hemmung des Zellwachstums (CHO-Zellen [3])
1 | CCCC(=O)Nc1ncnc2c1ncn2[C@@H]1O[C@@H]2COP(=O)(O)O[C@H]2[C@H]1OC(=O)CCC [Dibutyryl c-AMP] | keinen Einfluß | – | – | – | – | – | – | – | – | – | – | –
2 | CCC(=O)O [Propionsäure] | – | nur geringfügig gesteigert | nur gering erhöht | 5000 to 10000 | 28,0 ± 2,5% | 45,5% | 5-10 mM (10 mM) | 28,7 ± 9,3% | 24,4 ± 4,1% | 31,8% | ca. 14% | in geringerem Maße

From EP0315782A2, “Method for the production of proteins” (priority 1987, dated 1989)
